Patent publication US20240139221A1, “TREATMENT OF HPV-INDUCED NEOPLASIA” (priority 2022, published 2024)

Tests used:
[1] = Hygroscopicity by DVS at 25° C.; type: physicochemical; details: for Hygroscopicity (in words): DVS 25° C.; for XRPD after DVS test: after 40-0-95-0-40% RH cycle, 25° C.
Procedure: Hygroscopicity was investigated by DVS at 25° C., using the following method: […]

[2] = Solubility in buffers, water and simulated vaginal fluid at 37° C.; details: for solubility / solubility at 0.5 h / solubility at 2 h: 37 °C, thermodynamic from solid; for pH of solution, 2 hours / Solubility 2 hours: 37° C.; for Solubility 2 hours: target 10 mg/5 mL
Procedure: About 4 mg of Compound I Pattern 1 was added into 2 mL of buffer solution.
(§1) Solubility was tested in five media, pH 3.0 citrate buffer, pH 4.5 acetate buffer, pH 6.8 phosphate buffer, water, simulated vaginal fluid (pH 4.2) at 37° C. for 0.5 h and 2 h.
The salt amount used is equivalent to 10 mg anhydrous free base. […] The obtained clear solutions were analyzed by pH meter for pH, and solubility was determined by observation.
as §1

[3] = In vitro tissue permeation test in human cervical tissue; type: in vitro ADME; details: 0.1% gel, FIG. 116
Description: (§2) FIG. 116 is an in vitro tissue permeation test in vaginal tissue comparing Compound II to ABI-1968. […] Bars B and C show the tissue penetration of a 0.1% Compound II gel in human cervical tissue. […] This may be a contributing factor to the performance of ABI-1968 in clinical studies. […] This is described in Example 41.

[4] = Polymorph screening by equilibration in solvents at 25° C. (crystal modification, XRPD); type: physicochemical
[5] = Ex vivo permeation and penetration across porcine vaginal tissue (Franz diffusion cells, IVPT); type: in vitro ADME; details: FIG. 116
Description: as §2
Freshly harvested porcine vaginal tissue was procured from local slaughterhouse in an ice box. The vaginal tissue was cut open to expose the mucosal surface and tissue was cleaned by gentle flow of PBS pH 7.4. The porcine vaginal tissue was cut into circular portions (approximately 2 cm^2) with help of a […] punch.
The circular portion of tissue was sandwiched between two chambers of a Franz diffusion cell with an active diffusion area of 1 cm^2, and the mucosal layer was exposed to the donor chambers. The resistance across porcine vaginal tissue was measured using a wave form generator to ensure the integrity of the tissue segment used for the permeation study. Porcine vaginal tissue with resistance of ≥3 KΩ·cm^2 was used for study. The receiver chamber was filled with 8 ml of 5% solutol PBS 7.4 pH, which was stirred at 600 rpm with a 3 mm magnetic stir bar and the temperature was maintained at 37° C. with a circulating water bath.
The ˜200 mg of gel was filled into tared 1 mL syringe and gel was dispensed to donor chamber. […]

[6] = Bulk stability (accelerated stability, one week; HPLC and XRPD); details: for physical and chemical stability (in words): 25° C./92% RH open, 40° C./75% RH open, 60° C. tight container, one week; for Bulk (XRPD) / Color / Purity, Bulk (HPLC): Solid state, 1 week; for Initial HPLC purity: before storage
Procedure: Bulk stability: Accelerated stability experiments were conducted at 25° C./92% RH and 40° C./75% RH in an open container, 60° C. in a tight container for one week.
Samples were characterized by XRPD and HPLC and inspected for color change.
Accelerated stability experiments were conducted at 25° C./92% RH in an open container, at 40° C./75% RH in an open container, and at 60° C. in a tight container for one week.

[7] = cycle of 40-0-95-0-45% relative humidity
[8] = pH 4.2, fassgf or other biorelevant
[9] = Simulated vaginal fluid (pH adjusted by 0.1N NaOH)
[10] = PS7, solvent IPA/heptanes (3/10, v/v)
[11] = PS8, solvent water/ACN (2.9/97.1, v/v)
[12] = PS9, solvent IPA/MTBE (1/3, v/v)
[13] = PS10, solvent EA/toluene (1/3, v/v)

CCOC(=O)[C@H](C)N[P@@](=O)(COCCn1cnc2c(OC)nc(N)nc21)OCc1ccccc1.O=C(O)/C=C/C(=O)O [Compound II]
Hygroscopicity (in words) [1]: slightly hygroscopic | XRPD after DVS test [1]: No form change | XRPD pattern after humidity cycle [1, 7]: does not change | solubility ([2]; aqueous buffer): > 2000 µg/mL | solubility at 0.5 h ([2]; pH 3, aqueous buffer): > 2000 µg/mL | solubility at 2 h ([2]; pH 3, aqueous buffer): > 2000 µg/mL | solubility at 0.5 h [2, 8]: > 2000 µg/mL | solubility at 2 h [2, 8]: > 2000 µg/mL | solubility at 0.5 h ([2]; pH 4.5, aqueous buffer): > 2000 µg/mL | solubility at 2 h ([2]; pH 4.5, aqueous buffer): > 2000 µg/mL | solubility at 0.5 h ([2]; pH 6.8, aqueous buffer): > 2000 µg/mL | solubility at 2 h ([2]; pH 6.8, aqueous buffer): > 2000 µg/mL | solubility at 0.5 h ([2]; water): > 2000 µg/mL | solubility at 2 h ([2]; water): > 2000 µg/mL | pH of solution, 2 hours [2, 9]: (5.79) | pH of solution, 2 hours ([2]; Water): (2.87) | pH of solution, 2 hours ([2]; pH 3.0, 100 mM citrate buffer): (2.85) | pH of solution, 2 hours ([2]; pH 4.5, 50 mM acetate buffer): (4.2) | pH of solution, 2 hours ([2]; pH 6.8, 50 mM phosphate buffer): (6.47) | tissue penetration (in words) [3]: high tissue penetration | Crystal modification after 1 week equilibration at 25° C. ([4]; PS1, solvent IPA): Compound II Pattern 1 | Crystal modification after 1 week equilibration at 25° C. ([4]; PS2, solvent Heptanes): Compound II Pattern 1 | Crystal modification after 1 week equilibration at 25° C. ([4]; PS3, solvent Water): Compound II Pattern 1 | Crystal modification after 1 week equilibration at 25° C. ([4]; PS4, solvent ACN): Compound II Pattern 2 | Crystal modification after 1 week equilibration at 25° C. ([4]; PS5, solvent MEK): Compound II Pattern 3 | Crystal modification after 1 week equilibration at 25° C. ([4]; PS6, solvent Acetone): Compound II Pattern 1 | Crystal modification after 1 week equilibration at 25° C. [4, 10]: Compound II Pattern 1 | Crystal modification after 1 week equilibration at 25° C. [4, 11]: Compound II Pattern 2 | Crystal modification after 1 week equilibration at 25° C. [4, 12]: Compound II Pattern 1 | Crystal modification after 1 week equilibration at 25° C. [4, 13]: Compound II Pattern 1 | tissue penetration (in words) [5]: high tissue penetration | physical and chemical stability (in words) [6]: good physical and chemical stability | Bulk (XRPD) ([6]; 25° C./92% RH, open container): No form change | Color ([6]; 25° C./92% RH, open container): No change | Purity, Bulk (HPLC) ([6]; 25° C./92% RH, open container): 99.5% | Bulk (XRPD) ([6]; 40° C./75% RH, open container): No form change | Color ([6]; 40° C./75% RH, open container): No change | Purity, Bulk (HPLC) ([6]; 40° C./75% RH, open container): 99.4% | Bulk (XRPD) ([6]; 60° C., tight container): No form change | Color ([6]; 60° C., tight container): No change | Purity, Bulk (HPLC) ([6]; 60° C., tight container): 99.7% | Initial HPLC purity [6]: 99.7%

CCOC(=O)[C@H](C)N[P@](=O)(COCCn1cnc2c(OC)nc(N)nc21)OCc1ccccc1 (single isomer, unassigned) [Compound III, monofumarate]
Hygroscopicity (in words) [1]: slightly hygroscopic | XRPD after DVS test [1]: No form change | XRPD pattern after humidity cycle [1, 7]: lose one of the peaks | increase in retained water content versus Compound II [1, 7]: 40 fold | solubility ([2]; aqueous buffer): > 2000 µg/mL | solubility ([2]; pH 3, aqueous buffer): > 2000 µg/mL | solubility [2, 8]: > 2000 µg/mL | solubility ([2]; pH 4.5, aqueous buffer): > 2000 µg/mL | solubility ([2]; pH 6.8, aqueous buffer): > 2000 µg/mL | solubility ([2]; water): > 2000 µg/mL | pH of solution, 2 hours [2, 9]: 5.37 | Solubility 2 hours [2, 9]: > 2000 µg/mL | pH of solution, 2 hours ([2]; Water): 2.78 | Solubility 2 hours ([2]; Water): > 2000 µg/mL | pH of solution, 2 hours ([2]; pH 3.0, 100 mM citrate buffer): 2.83 | Solubility 2 hours ([2]; pH 3.0, 100 mM citrate buffer): > 2000 µg/mL | pH of solution, 2 hours ([2]; pH 4.5, 50 mM acetate buffer): 4.12 | Solubility 2 hours ([2]; pH 4.5, 50 mM acetate buffer): > 2000 µg/mL | pH of solution, 2 hours ([2]; pH 6.8, 50 mM phosphate buffer): 6.44 | Solubility 2 hours ([2]; pH 6.8, 50 mM phosphate buffer): > 2000 µg/mL | Crystal modification after 1 week equilibration at 25° C. ([4]; PS1, solvent IPA): Compound V Pattern 2 | Crystal modification after 1 week equilibration at 25° C. ([4]; PS2, solvent Heptanes): Compound III Pattern 2 | Crystal modification after 1 week equilibration at 25° C. ([4]; PS3, solvent Water): Compound III Pattern 3 | Crystal modification after 1 week equilibration at 25° C. ([4]; PS4, solvent ACN): Compound III Pattern 4 | Crystal modification after 1 week equilibration at 25° C. ([4]; PS5, solvent MEK): Compound III Pattern 5 | Crystal modification after 1 week equilibration at 25° C. [4, 10]: Compound III Pattern 2 | Crystal modification after 1 week equilibration at 25° C. [4, 11]: Compound III Pattern 4 | Crystal modification after 1 week equilibration at 25° C. [4, 12]: Compound III Pattern 6 | Crystal modification after 1 week equilibration at 25° C. [4, 13]: Compound III Pattern 2 | physical and chemical stability (in words) [6]: good physical stability | Bulk (XRPD) ([6]; 25° C./92% RH, open container): No form change | Color ([6]; 25° C./92% RH, open container): No change | Purity, Bulk (HPLC) ([6]; 25° C./92% RH, open container): 98.7% | Bulk (XRPD) ([6]; 40° C./75% RH, open container): No form change (One | Color ([6]; 40° C./75% RH, open container): No change | Purity, Bulk (HPLC) ([6]; 40° C./75% RH, open container): 97.2% | Bulk (XRPD) ([6]; 60° C., tight container): No form change (One | Color ([6]; 60° C., tight container): No change | Purity, Bulk (HPLC) ([6]; 60° C., tight container): 97.3% | Initial HPLC purity [6]: 98.8%

CCCCCCCCCCCCCCCCCCOCCOP(=O)(O)COCCn1cnc2c(=O)[nH]c(N)nc21 [ABI-1968, reference compound]
tissue penetration (in words) [5]: substantially smaller degree
